Calls of active or inactive are those of the source. The calls are words filed in the database; no cut-off is given here.
How the values were obtained:
[1] = target: CDK6/cyclin D1 (Homo sapiens, UniProt Q00534); experiment: Inhibition of CDK6/cyclin-D1 (unknown origin) in presence of ATP by time resolved-FRET assay; assay type: protein-complex assay
[2] = target: CDK2/Cyclin A2 (Homo sapiens, UniProt P24941); experiment: Inhibition of CDK2/Cyclin A (unknown origin) in presence of ATP by time resolved-FRET assay; assay type: protein-complex assay
[3] = target: CDK4/Cyclin D3 (Homo sapiens, UniProt P11802); experiment: Inhibition of CDK4/cyclin-D3 (unknown origin) in presence of ATP by time resolved-FRET assay; assay type: protein-complex assay
CDK4/Cyclin D3, sequence (P11802 whole entry): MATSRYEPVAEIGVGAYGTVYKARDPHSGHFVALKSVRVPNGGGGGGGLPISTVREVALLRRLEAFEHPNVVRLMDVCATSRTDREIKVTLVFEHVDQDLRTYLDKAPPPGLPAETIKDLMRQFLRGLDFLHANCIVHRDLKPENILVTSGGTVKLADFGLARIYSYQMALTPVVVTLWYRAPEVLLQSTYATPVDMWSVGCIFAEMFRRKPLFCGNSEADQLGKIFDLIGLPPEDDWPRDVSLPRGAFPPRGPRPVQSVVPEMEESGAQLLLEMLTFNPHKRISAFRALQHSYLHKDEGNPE
CDK4/Cyclin D3, sequence (P30281 whole entry, further chain): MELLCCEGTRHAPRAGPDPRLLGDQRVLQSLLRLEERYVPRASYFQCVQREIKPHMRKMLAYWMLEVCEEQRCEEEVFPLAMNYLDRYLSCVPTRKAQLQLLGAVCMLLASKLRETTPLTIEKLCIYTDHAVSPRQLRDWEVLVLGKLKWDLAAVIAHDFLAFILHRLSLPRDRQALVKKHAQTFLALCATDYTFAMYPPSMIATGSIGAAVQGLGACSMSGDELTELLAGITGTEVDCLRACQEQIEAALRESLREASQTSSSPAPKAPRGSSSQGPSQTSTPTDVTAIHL

[4] = target: CDK7/Cyclin H/MNAT1 (Homo sapiens, UniProt P50613); experiment: Inhibition of CDK7/cyclin H/MAT1 (unknown origin) in presence of ATP by time resolved-FRET assay; assay type: protein-complex assay
CDK7/Cyclin H/MNAT1, sequence (P51946 whole entry): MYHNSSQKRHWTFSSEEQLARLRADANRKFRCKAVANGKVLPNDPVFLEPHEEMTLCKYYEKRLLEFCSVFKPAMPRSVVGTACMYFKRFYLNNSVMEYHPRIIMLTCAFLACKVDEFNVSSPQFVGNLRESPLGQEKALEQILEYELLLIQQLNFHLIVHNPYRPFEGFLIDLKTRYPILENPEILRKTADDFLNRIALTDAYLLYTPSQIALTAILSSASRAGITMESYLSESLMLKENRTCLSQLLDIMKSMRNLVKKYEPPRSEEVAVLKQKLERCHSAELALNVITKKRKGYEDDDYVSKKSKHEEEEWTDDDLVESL
CDK7/Cyclin H/MNAT1, sequence (P50613 whole entry): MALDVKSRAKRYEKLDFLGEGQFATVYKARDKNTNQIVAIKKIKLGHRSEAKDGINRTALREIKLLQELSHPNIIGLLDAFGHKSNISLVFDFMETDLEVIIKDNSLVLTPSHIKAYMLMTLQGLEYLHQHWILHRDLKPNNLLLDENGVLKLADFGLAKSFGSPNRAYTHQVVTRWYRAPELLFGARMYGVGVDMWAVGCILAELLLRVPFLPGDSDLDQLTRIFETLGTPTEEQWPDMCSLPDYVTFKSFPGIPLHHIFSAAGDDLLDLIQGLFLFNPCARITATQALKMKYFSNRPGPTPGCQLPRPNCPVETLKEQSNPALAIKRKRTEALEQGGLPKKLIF
CDK7/Cyclin H/MNAT1, sequence (P51948 whole entry, further chain): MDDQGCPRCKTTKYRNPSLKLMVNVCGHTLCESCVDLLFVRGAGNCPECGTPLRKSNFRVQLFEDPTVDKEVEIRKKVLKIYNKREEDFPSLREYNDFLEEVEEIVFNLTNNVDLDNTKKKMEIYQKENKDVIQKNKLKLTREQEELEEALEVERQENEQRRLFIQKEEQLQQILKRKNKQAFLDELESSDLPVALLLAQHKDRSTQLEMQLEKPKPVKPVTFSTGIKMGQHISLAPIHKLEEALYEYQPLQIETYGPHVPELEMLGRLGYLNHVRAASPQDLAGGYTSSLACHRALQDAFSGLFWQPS

[5] = system: T47D; experiment: Antiproliferative activity against human T47D cells assessed as cell growth inhibition incubated for 72 hrs by CCK-8 assay; assay type: functional
[6] = system: ZR-75-1; experiment: Antiproliferative activity against human ZR-75-1 cells assessed as cell growth inhibition incubated for 72 hrs by CCK-8 assay; assay type: functional
[7] = system: T47D; experiment: Antiproliferative activity against human T47D cells assessed as inhibition of cell growth at 1 to 4 uM incubated for 5 days by CCK-8 assay; assay type: functional, cell-based; conditions: dose 1-4 µM, time 5.0 day
[8] = system: MCF7; experiment: Inhibition of clone formation in human MCF7 cells at 0.75 to 6 uM by crystal voilet staining based analysis; assay type: functional, cell-based; conditions: dose 0.75-6 µM, time 2.0 weeks
[9] = system: T47D; experiment: Inhibition of clone formation in human T47D cells at 1 to 8 uM by crystal voilet staining based analysis; assay type: functional, cell-based; conditions: dose 1-8 µM, time 2.0 weeks
[10] = Cmax in Sprague-Dawley rat 1 mg/kg, iv by LC/MS/MS analysis; assay type: ADME, organism-based; set-up: dose 1 mg/kg, route iv; conditions: in vivo
[11] = system: T47D; experiment: Induction of cell cycle arrest in human T47D cells assessed as accumulation of cells at G1 phase at 4 uM incubated for 24 hrs by propidium iodide staining based flow cytometry analysis (reference value: 69.55 %); assay type: functional
[12] = system: T47D; experiment: Induction of cell cycle arrest in human T47D cells assessed as accumulation of cells at G2 phase at 4 uM incubated for 24 hrs by propidium iodide staining based flow cytometry analysis (reference value: 16.57%); assay type: functional
[13] = target: T1, Retinoblastoma-associated protein (Homo sapiens) (UniProt P06400); experiment: Inhibition of RB phosphorylation in human MCF7 cells at 1.5 to 5 uM incubated for 24 hrs by Western blot analysis; assay type: cell-based; conditions: dose 1.5-5 µM
T1 sequence (whole entry): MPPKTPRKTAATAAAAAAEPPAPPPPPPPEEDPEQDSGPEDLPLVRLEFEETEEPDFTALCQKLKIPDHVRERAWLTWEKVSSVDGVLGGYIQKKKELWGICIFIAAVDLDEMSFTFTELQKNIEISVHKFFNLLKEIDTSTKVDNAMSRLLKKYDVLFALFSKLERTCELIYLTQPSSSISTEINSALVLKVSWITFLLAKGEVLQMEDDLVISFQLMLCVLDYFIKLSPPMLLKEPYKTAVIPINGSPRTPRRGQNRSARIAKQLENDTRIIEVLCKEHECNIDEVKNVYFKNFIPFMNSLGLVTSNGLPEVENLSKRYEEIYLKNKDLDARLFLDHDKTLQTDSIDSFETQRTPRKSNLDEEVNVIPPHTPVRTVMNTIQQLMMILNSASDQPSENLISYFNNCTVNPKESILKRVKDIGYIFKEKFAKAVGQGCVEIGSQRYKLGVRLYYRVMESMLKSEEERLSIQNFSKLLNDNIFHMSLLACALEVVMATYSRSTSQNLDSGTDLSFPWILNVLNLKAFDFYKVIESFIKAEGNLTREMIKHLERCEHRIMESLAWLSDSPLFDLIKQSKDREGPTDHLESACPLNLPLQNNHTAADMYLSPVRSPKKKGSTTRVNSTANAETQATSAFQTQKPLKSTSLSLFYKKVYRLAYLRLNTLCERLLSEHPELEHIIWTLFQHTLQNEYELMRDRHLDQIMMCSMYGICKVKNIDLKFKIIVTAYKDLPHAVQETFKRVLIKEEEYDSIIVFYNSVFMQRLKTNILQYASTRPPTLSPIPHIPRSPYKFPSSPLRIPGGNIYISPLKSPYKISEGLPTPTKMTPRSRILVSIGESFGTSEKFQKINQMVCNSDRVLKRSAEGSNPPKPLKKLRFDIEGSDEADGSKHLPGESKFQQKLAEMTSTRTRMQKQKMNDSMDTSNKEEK

[14] = target: T1, Retinoblastoma-associated protein (Homo sapiens); experiment: Inhibition of RB phosphorylation in human T47D cells at 1 to 4 uM incubated for 24 hrs by Western blot analysis; assay type: cell-based; conditions: dose 1-4 µM
[15] = system: MCF7; experiment: Downregulation cyclin D1 level in human MCF7 cells incubated for 24 hrs by Western blot analysis; assay type: functional, cell-based; conditions: dose 1.5-5 µM, DDE = dose-dependent effect
[16] = system: T47D; experiment: Downregulation cyclin D1 level in human T47D cells incubated for 24 hrs by Western blot analysis; assay type: functional, cell-based; conditions: dose 1-4 µM, DDE = dose-dependent effect
[17] = […] stability in human liver microsomes assessed as half life preincubated for 10 mins followed by NADPH addition by LC-MS/MS analysis; assay type: ADME, Microsome
[18] = […] stability in human liver microsomes assessed as intrinsic clearance preincubated for 10 mins followed by NADPH addition by LC-MS/MS analysis; assay type: ADME, Microsome; conditions: read-out: CLH
[19] = AUC (0 to infinity) in Sprague-Dawley rat 1 mg/kg, iv by LC/MS/MS analysis; assay type: ADME, organism-based; set-up: time infinity, dose 1 mg/kg, route iv; conditions: in vivo
[20] = Half life in Sprague-Dawley rat 1 mg/kg, iv by LC/MS/MS analysis; assay type: ADME, organism-based; conditions: in vivo
[21] = Cmax in Sprague-Dawley rat 10 mg/kg, po by LC/MS/MS analysis; assay type: ADME, organism-based; set-up: dose 10 mg/kg, route po; conditions: in vivo
[22] = AUC (0 to infinity) in Sprague-Dawley rat 10 mg/kg, po by LC/MS/MS analysis; assay type: ADME, organism-based; set-up: time infinity, dose 10 mg/kg, route po; conditions: in vivo
[23] = Tmax in Sprague-Dawley rat 10 mg/kg, po by LC/MS/MS analysis; assay type: ADME, organism-based; conditions: in vivo
[24] = Acute toxicity in ICR mouse assessed as animal death at 5000 mg/kg, po administered as single dose and measured every 2 days for 14 days; assay type: organism-based; conditions: in vivo, 336 h, time 14 day
[25] = Acute toxicity in ICR mouse assessed as change in heart kidney at 1000 to 5000 mg/kg, po administered as single dose and measured every 2 days for 14 days; assay type: organism-based; conditions: in vivo, 336 h, dose 1000-5000 mg/kg, time 14 day
[26] = Acute toxicity in ICR mouse assessed as heart lesions at 5000 mg/kg, po administered as single dose and measured every 2 days for 14 days by H and E staining based analysis; assay type: organism-based; conditions: in vivo, 336 h, time 14 day
[27] = Acute toxicity in ICR mouse assessed as heart kidney at 5000 mg/kg, po administered as single dose and measured every 2 days for 14 days by H and E staining based analysis; assay type: organism-based; conditions: in vivo, 336 h, time 14 day
[28] = Toxicity in BALB/c mouse xenografted with human MCF7 cells assessed as increase in body weight at 100 to 150 mg/kg, po administered once daily and measured every 2 days for 23 days; assay type: organism-based; conditions: in vivo, 552 h, dose 100-150 mg/kg, time 23 day

CDK6/cyclin D1, sequence (P24385 whole entry): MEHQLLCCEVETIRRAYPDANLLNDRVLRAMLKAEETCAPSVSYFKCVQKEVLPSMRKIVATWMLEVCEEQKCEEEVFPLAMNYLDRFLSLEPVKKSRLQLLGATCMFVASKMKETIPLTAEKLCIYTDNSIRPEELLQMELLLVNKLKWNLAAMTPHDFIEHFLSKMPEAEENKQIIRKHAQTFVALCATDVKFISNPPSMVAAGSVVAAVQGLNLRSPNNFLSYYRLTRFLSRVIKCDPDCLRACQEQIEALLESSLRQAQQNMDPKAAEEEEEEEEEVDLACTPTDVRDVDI
CDK6/cyclin D1, sequence (Q00534 whole entry): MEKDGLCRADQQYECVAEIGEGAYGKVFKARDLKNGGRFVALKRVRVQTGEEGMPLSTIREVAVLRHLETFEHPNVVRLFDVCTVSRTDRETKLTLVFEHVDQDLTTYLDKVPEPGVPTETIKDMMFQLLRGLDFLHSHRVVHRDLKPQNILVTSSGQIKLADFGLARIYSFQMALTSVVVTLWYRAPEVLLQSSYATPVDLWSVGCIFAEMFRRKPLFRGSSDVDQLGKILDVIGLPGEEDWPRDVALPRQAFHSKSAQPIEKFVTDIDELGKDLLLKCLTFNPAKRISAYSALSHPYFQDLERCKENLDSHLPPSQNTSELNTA

CCN1CCc2cc(-c3nc(Nc4ccc(N5CCNCC5)cn4)ncc3F)ccc2C1=O
IC50 [1]: 16 nM | IC50 [2]: 1050 nM | IC50 [3]: 10 nM | IC50 [4]: 2600 nM | GI50 [5]: 887 nM | GI50 [6]: 3200 nM | inhibition [7]: Active | inhibition [8]: Active | inhibition [9]: Active | Cmax [10]: 291 ng/mL | Activity [11]: 87.12% | Activity [12]: 5.87% | inhibition [13]: Active | inhibition [14]: Active | Activity [15]: Dde | Activity [16]: Dde | half-life [17]: 1.8 h | CLint scaled [18]: 11.5 mL/min/kg | AUC(0-inf) [19]: 373 ng·h/mL | half-life [20]: 2.62 h | Cmax [21]: 144 ng/mL | AUC(0-inf) [22]: 1610 ng·h/mL | Tmax [23]: 6 h | Activity [24]: Non-Toxic | Activity [25]: Non-Toxic | Activity [26]: Non-Toxic | Activity [27]: Non-Toxic | Activity [28]: Non-Toxic

From ChEMBL document CHEMBL5096234, “Discovery, Optimization, and Evaluation of Selective CDK4/6 Inhibitors for the Treatment of Breast Cancer” (J Med Chem, 2022)
